Experimental data published in EP3502109A1, “TRIAZOLE-PHENYL-THIAZOLE HETEROCYCLES AS INNOVATIVE INHIBITORS OF TRYPANOTHIONE REDUCTASE AND THEIR USE AS LEISHMANICIDES” (Consejo Superior De Investigaciones Científicas, priority 2017, dated 2019).
Structures can show the parent of a compound that is named as a salt.

How the values were obtained:
recombinant Li-TryR = recombinant Li-TryR (Leishmania infantum, UniProt A4HSF7); test: Li-TryR oxidoreductase activity assay; type: biochemical
Procedure: Oxidoreductase activity was determined according to the method described by Hamilton et al. (Biochem. J., 2003, 369, 529-537). Briefly, reactions were carried out at 26 °C (250 µL) of HEPES pH 8.0 (40 mM) buffer containing EDTA (1 mM), NADPH (150 µM), NADP+ (30 µM), DTNB (25 µM), T[S]2 (1 µM), glicerol (0.02%), DMSO (1.5%) and recombinant Li-TryR (7 nM). […] Enzyme activity was monitored by the increase in absorbance at 412 nm for 1 h at 26 °C in a VERSAmax microplate reader (Molecular Devices, California, USA). All the assays were conducted in triplicate in at least three independent experiments. Data were analyzed using a non-linear regression model with the Grafit6 software (Erithacus, Horley, Surrey, UK).

Li-TryR dimeric form [1] = biological target: T1, Li-TryR dimeric form (Leishmania infantum, UniProt A4HSF7); test: Dimer quantitation assay (ELISA), Li-TryR monomer displacement; type: binding
T1 sequence (A4HSF7 entry or part of it): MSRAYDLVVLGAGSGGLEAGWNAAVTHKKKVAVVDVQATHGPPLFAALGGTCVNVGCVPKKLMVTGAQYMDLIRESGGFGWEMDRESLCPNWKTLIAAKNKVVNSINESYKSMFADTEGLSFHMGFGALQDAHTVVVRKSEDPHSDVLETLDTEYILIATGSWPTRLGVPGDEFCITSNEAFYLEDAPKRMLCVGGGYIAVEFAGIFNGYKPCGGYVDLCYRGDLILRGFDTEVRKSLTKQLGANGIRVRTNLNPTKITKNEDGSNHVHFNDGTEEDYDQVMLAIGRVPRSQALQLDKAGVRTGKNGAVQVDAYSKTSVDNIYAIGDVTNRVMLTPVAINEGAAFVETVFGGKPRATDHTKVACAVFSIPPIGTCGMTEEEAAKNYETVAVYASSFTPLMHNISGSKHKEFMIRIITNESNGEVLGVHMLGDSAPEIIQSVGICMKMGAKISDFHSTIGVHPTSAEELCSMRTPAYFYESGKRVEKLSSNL
Procedure: The stability of the Li-TryR dimeric form in the presence of the compounds was evaluated using an Enzyme-Linked ImmunoSorbent Assay (ELISA). Briefly a dual (HIS/FLAG) tagged Li-TryR (400 nM) was incubated in a dimerization buffer (200 µL 300 mM NaCl, 50 mM Tris pH 8.0) for 16 h at 37 °C with agitation and in a humid atmosphere in the presence of different peptide concentration (10 to 90 µM) in 1.5ml tubes. Next, the tubes were centrifuged at 30000 rcf and supernatants were disposed in anti-flag coated 96 well plates and incubated 30 min, at 37°C with gentle shaking. Then the plates were washed ten times with TTBS (Tween 0.1%, 2 mM Tris, 138 mM NaCl 138 pH 7.6) and incubated with diluted monoclonal α-HIS HRP conjugated antibody (200 µL, Abcam, Cambridge, UK) in BSA (5%) in TTBS for 1 h at room temperature. The plates were washed once again as previously described and 1,2-phenylenediamine dihydrochloride (OPD) substrate (100 µL, Dako, Glostrup, Denmark) prepared according to manufacturer's instructions was added. The enzymatic reaction was stopped after 10 min with H2SO4 (100 µL, 0.5 M) and the absorbances were measured at 490 nm in a VERSAmax microplate reader (Molecular Devices, California, USA). All the assays were conducted in triplicate in at least three independent experiments. Data were analyzed using a non-linear regression model with the Grafit6 software (Erithacus, Horley, Surrey, UK). Table 1. IC50 ± SEM values for target compounds of formula I-A and I-B in the oxidoreductase activity assays and in the Li-TryR monomer displacement

[2] = tested on: L. infantum promastigotes; test: Leishmanicidal activity on promastigotes (PI exclusion, flow cytometry); type: cell-based; conditions: Leishmania infantum, 24 h
Procedure: L. infantum promastigotes (MCAN/ES/ 89/IPZ229/1/89) were grown in RPMI-1640 medium (Sigma-Aldrich, St. Louis, MO, USA) supplemented with 10% heat-inactivated fetal calf serum (FCS), antibiotics, and 25 mm HEPES (pH 7.2) at 26 °C.
(§1) Drug treatment of amastigotes was performed during the logarithmic growth phase at a concentration of 1×10^6 parasites/mL at 37 °C for 24 h. Drug treatment of promastigotes was performed during the logarithmic growth phase at a concentration of 2×10^6 parasites/mL at 26 °C for 24 h. The percentage of living cells was evaluated by flow cytometry by the propidium iodide (PI) exclusion method.^17 Drug concentrations ranged from 0.2 µM to 25 µM.

[3] = tested on: L. infantum axenic amastigotes; test: Leishmanicidal activity on axenic amastigotes (PI exclusion, flow cytometry); type: cell-based; conditions: Leishmania infantum, 24 h
Procedure: L. infantum axenic amastigotes were grown in M199 (Invitrogen, Leiden, The Netherlands) medium supplemented with 10% heat inactivated FCS, 1 g/L β-alanine, 100 mg/L L-asparagine, 200 mg/L sacarose, 50 mg/L sodium pyruvate, 320 mg/L malic acid, 40 mg/L fumaric acid, 70 mg/L succinic acid, 200 mg/L α-ketoglutaric acid, 300 mg/L citric acid, 1.1 g/L sodium bicarbonate, 5 g/L MES, 0.4 mg/L hemin, 10 mg/L gentamicine pH 5.4 at 37 °C. THP-1 cells were grown in RPMI-1640 medium (Gibco, Leiden, The Netherlands) supplemented with 10% heat inactivated FCS, antibiotics, 1 mM HEPES, 2 mM glutamine and 1 mM sodium pyruvate, pH 7.2 at 37 °C and 5% CO2.
as §1

[4] = tested on: L. infantum intracellular amastigotes; test: Leishmania infection assay (intracellular amastigotes in THP-1 macrophages); type: cell-based; conditions: THP-1, 48 h
Procedure: Human THP-1 monocytic cells were seeded at 1.2 x 10^5 cells/ml in 24-multidish plates (Nunc, Roskilde, Denmark) and differentiated to macrophages for 24 h in 1 ml of RPMI 1640 medium containing 10 ng/ml of phorbol 12-myristate 13-acetate (PMA) (Sigma-Aldrich, St. Louis, MO). Medium culture was removed, and 1.2 x 10^6 Leishmania amastigotes in 1 ml of THP-1 medium were added to each well. Four hours later, the medium with non-infective amastigotes was completely removed, washed 3 times with 1 phosphate-buffered saline (PBS), and replaced with new THP-1 medium and the corresponding treatment. After 48 h of treatment, medium was removed; THP-1 cells were washed 3 times with 1xPBS and detached with TrypLE Express (Invitrogen, Leiden, The Netherlands) according to the manufacturer's indications. Infection quantification was measured by flow cytometry. Drug concentrations ranged from 0.2 µM to 25 µM.

[5] = tested on: macrophage-differentiated THP-1 monocytes; test: Cytotoxicity assay, macrophage-differentiated THP-1 (crystal violet); type: cell-based; conditions: Homo sapiens, THP-1, 24 h; read-out: EC50 (µM) THP-1 dif
Procedure: (§2) Human THP-1 monocytic cells were seeded at 1.2 x 10^5 cells/ml in 24-multidish plates (Nunc, Roskilde, Denmark) and differentiated to macrophages for 24 h in 1 ml of RPMI 1640 medium containing 10 ng/ml of phorbol 12-myristate 13-acetate (PMA) (Sigma-Aldrich, St. Louis, MO). Human HepG2 cells were seeded at 8 x 10^5 cells/ml in 24-multidish plates (Nunc, Roskilde, Denmark). After 24 h of drug treatment, both cell lines were washed with PBS and stained with violet crystal solution (0.2% in 2% ethanol) in for 10 min. at room temperature. After dye removal, cells were washed twice with water. Once dried, the wells were treated with 1% SDS for 30 min and the absorbance at 570nm was monitored in a plate reader. Table 2. EC50± SEM values for the compounds of formula I-A and I-B on L. infantum promastigotes, extracellular and intracellular amastigotes and cytotoxic activity in macrophage-differentiated THP-1 monocytes and HepG2 cell lines

HepG2 cells = test: Cytotoxicity assay, HepG2 (crystal violet); type: cell-based; conditions: Homo sapiens, HepG2, 24 h
Procedure: as §2

Li-TryR dimeric form [6] = biological target: T1, Li-TryR dimeric form; conditions: background, ChemBioChem, 2013, 14(10), 1212-1217; cited from earlier work

recombinant Li-TryR, sequence (A4HSF7 entry or part of it): as above

| Compound | IC50 (recombinant Li-TryR) [µM] | IC50 (Li-TryR dimeric form [1]) [µM] | EC50 [2] [µM] | EC50 [3] [µM] | EC50 [4] [µM] | EC50 [5] [µM] | EC50 (HepG2 cells) [µM] | Li-TryR dimerization inhibition (Li-TryR dimeric form [6]) |
| --- | --- | --- | --- | --- | --- | --- | --- | --- |
| NCCCCc1cn(-c2ccc(-c3nc(CCc4ccc5ccccc5c4)cs3)c(OCCN3CCNC3=O)c2)nn1 [Compound 8g, 1-(2-(5-(4-(4-Aminobutyl)-1H-1,2,3-triazol-1-yl)-2-(4-(2-(naphthalen-2-yl)ethyl)thiazol-2-yl)phenoxy)ethyl)imidazolidin-2-one 2,2,2 trifluoroacetate] | 6.22 ± 1.01 | 11.2 ± 0.41 | 8.79 ± 0.75 | 23 ± 1.86 | 31.2 ± 1.9 | 47.6 ± 3.3 | 33.3 ± 2.7 | – |
| NCCCCc1cn(-c2ccc(-c3nc(CCc4ccccc4)cs3)c(OCCN3CCNC3=O)c2)nn1 [Compound 8e, 1-(2-(5-(4-(4-Aminobutyl)-1H-1,2,3-triazol-1-yl)-2-(4-phenethylthiazol-2-yl)phenoxy)ethyl)imidazolidin-2-one 2,2,2 trifluoroacetate] | – | – | 30.54 ± 0.16 | 13.9 ± 0.6 | 33.6 ± 1.5 | 27.2 ± 1.2 | 20.4 ± 2.37 | – |
| PKIIQSVGIS-Nle-K-Nle: 13-mer linear peptide derived from an α-helix spanning residues P435 to M447 of Li-TryR; prototype dimerization inhibitor (C-terminal Nle-K-Nle) | – | – | – | – | – | – | – | low micromolar range |
| CC(C)(C)Cc1csc(-c2ccc(-n3cc(CCCCN)nn3)cc2OCCN2CCNC2=O)n1 [Compound 8b, 1-(2-(5-(4-(4-Aminobutyl)-1H-1,2,3-triazol-1-yl)-2-(4-neopentylthiazol-2-yl)phenoxy)ethyl)imidazolidin-2-one 2,2,2 trifluoroacetate] | 17.2 ± 1.69 | > 75 | 45 ± 3.51 | 18.2 ± 0.4 | 30.2 ± 1.7 | – | – | – |
| PEIIQSVGIS-Nle-K-Nle: 13-mer linear peptide derived from an α-helix spanning residues P435 to M447 of Li-TryR; prototype dimerization inhibitor (C-terminal Nle-K-Nle) | – | – | – | – | – | – | – | low micromolar range |
| NCCCCc1cn(-c2ccc(-c3nc(CCc4ccc(-c5ccccc5)cc4)cs3)c(OCCN3CCNC3=O)c2)nn1 [Compound 8h, 1-(2-(2-(4-(2-([1,1'-Biphenyl]-4-yl)ethyl)thiazol-2-yl)-5-(4-(4-aminobutyl)-1H-1,2,3-triazol-1-yl)phenoxy)ethyl)imidazolidin-2-one 2,2,2 trifluoroacetate] | 11.6 ± 2.05 | 5.94 ± 0.99 | 5.44 ± 0.44 | 13.9 ± 0.93 | – | 45.7 ± 0.6 | 43.1 ± 2.65 | – |
| C[n+]1nn(-c2ccc(-c3nc(CCc4ccc(-c5ccccc5)cc4)cs3)c(OCCN3CCNC3=O)c2)cc1CCCCN [Compound 10e, 1-(4-(4-(2-([1,1'-Biphenyl]-4-yl)ethyl)thiazol-2-yl)-3-(2-(2-oxoimidazolidin-1-yl)ethoxy)phenyl)-4-(4-ammoniobutyl)-3-methyl-1H-1,2,3-triazol-3-ium 2,2,2-trifluoroacetate trifluoromethanesulfonate] | 5.19 ± 0.82 | 23.8 ± 0.96 | 18.7 ± 1.26 | 11.6 ± 1.14 | 19.5 ± 1 | 21.6 ± 0.7 | ≥ 75 | – |
| CC[n+]1nn(-c2ccc(-c3nc(CCc4ccc(-c5ccccc5)cc4)cs3)c(OCCN3CCNC3=O)c2)cc1CCCCN [Compound 10f, 1-(4-(4-(2-([1,1'-Biphenyl]-4-yl)ethyl)thiazol-2-yl)-3-(2-(2-oxoimidazolidin-1-yl)ethoxy)phenyl)-4-(4-ammoniobutyl)-3-ethyl-1H-1,2,3-triazol-3-ium 2,2,2-trifluoroacetate trifluoromethanesulfonate] | 3.88 ± 0.55 | 87.06 ± 0.1 | 6.03 ± 0.49 | 15.5 ± 0.7 | – | 19.9 ± 1.1 | 69.9 ± 2.97 | – |
